Columns and labels:
[1] = test system: wild type zebrafish larvae; assay: PTZ-induced seizure assay in larvae; assay type: in vivo; conditions: PTZ 15 uM, 4 day post-fertilization wild type larvae
Description: To assay small molecule compounds with anti-seizure activity, 4 day post-fertilization wild type zebrafish were placed in 96-well plates (5 larvae per well) and incubated in the test compounds (20 uM) as above, for either 2 or 12 hrs. Subsequently, the larvae were administered pentylenetetrazole (PTZ; 15 uM) and observed for seizure activity (i.e., a change in phenotype). […] This activity persists for approximately 20 minutes and then culminates in a tonic convulsion that abolishes movement and normal posture. Prior to or after onset of the seizure activity, the small molecule test compound was administered to the larvae and the response of the fish assessed visually or by digital recording.
Scoring was based upon whether the test compound was able to inhibit or modify the seizure activity of the larvae.

[2] = test system: wild type zebrafish larvae; assay: Wild type larvae exposed to compound, PED6 imaging of intestine contour; assay type: in vivo, zebrafish (Danio rerio); conditions: 6 dpf wild type larvae, 2 hour exposure to PED6; FIG. 2B
Description: FIGS. 2A-2D photographically show lateral fluorescent images of 6 dpf zebrafish larvae following 2 hour exposure to fluorescent lipid PED6.
For rescue experiments, 1-cell stage embryos derived from pair-wise mating of heterozygous mlt carriers were injected with either the MT-mmpa, morpholino alone or in combination with the β4 integrin morpholino. Subsequently, all embryos were injected with either 0.375 or 0.1875 pg of tissue inhibitor of metalloproteinases 2 (TIMP2 inhibitor) (PF021; Oncogene Research Products, now Calbiochem, San Diego, Calif.) at 48 hpf. Alternatively, 2.5 dpf or 3 dpf larvae were incubated in the TGF-β Type I receptor inhibitor SB 431542, 100 μM in embryo media. Morpholino sequences were as identified in Wallace et al., supra, 2005b for smooth muscle myosin heavy chain, β4 integrin, and MT-mmpa.

[3] = test system: meltdown (mlt) mutant larvae; assay: Rescue of the mlt mutant phenotype by compound exposure, read out with fluorescent lipid PED6 in the posterior intestine; assay type: in vivo, zebrafish (Danio rerio)
Description: For testing, the embryos were then cultured in the presence of the test compound(s) overnight or up to 96 hrs at 28.5° C., for example, in 96-well plates. Mutant larvae and mutants reared in the presence of small molecule compounds may be bathed in the fluorescent lipid PED6 or fluorescent microspheres, which outline the digestive tract lumen and can be seen by visual inspection or by a commercially-available fluorescent plate scanner, typically by 96-120 hours post fertilization (hpf). Although signals that regulate regional epithelial differentiation and renewal are poorly understood, in meltdown (mlt), the posterior gut is disorganized and bears an expanded mesenchyme (Briggs, Am. J. Physiol. Regulatory Integrative Comp. Physiol. 282: R3-9 (2002)). Neither fluorescent marker enters the posterior intestine of mlt mutants because the intestinal lumen is obstructed by the massive cysts that form in all mlt mutant larvae.
No effect: A test compound was considered to have no effect if none of the mlt mutant larvae show fluorescent lipid in the posterior intestine.
When no mutants were observed, one possibility was that the test compound produced a complete rescue of the mutant phenotype. The other possibility was that there were never any mutants present in the well. When embryos derived from matings of heterozygous mlt/+ fish are used for these assays, then with 8-10 embryos per test compound, the latter possibility may be calculated to occur with a frequency of 0.01%.
Partial rescue: Partial rescue was considered when mutants or the mutant phenotype was present, but the fluorescent markers were present in the posterior intestine.
In the present assays, mosaic zebrafish were generated in which homozygous mlt/mlt cells have replaced the native germline of wild type fish. 100% of the offspring derived from pair wise matings of such modified zebrafish are homozygous for the mlt mutation. Thus, all of the larvae placed in each well of the 96-well plate are mlt mutants, greatly enhancing the efficiency of each assay. […]

C1CCc2nnnn2CC1 [PTZ, pentylenetetrazole]
duration of seizure activity before tonic convulsion [1]: approximately 20 minutes

NC(=O)c1ccc(-c2nc(-c3ccc4c(c3)OCO4)c(-c3ccccn3)[nH]2)cc1 [SB431542]
intestine contour in wild type larvae [2]: normal intestine contour | posterior intestinal PED6 fluorescence and intestine contour in mlt larvae ([3]; 6 dpf mlt larvae, 2 hour exposure to PED6, FIG. 2D): posterior intestinal fluorescence and the contour is normal | rescue of the mlt mutant phenotype (fluorescent lipid in posterior intestine) ([3]; compound added ~60 hpf, PED6 at 96 hpf, imaged at 120 hpf): rescuing the mutant phenotype | intestinal cysts versus untreated mlt larvae ([3]; mlt larvae scored at 5 dpf, treated at 2.5 dpf or 3 dpf, 100 μM in embryo media): far fewer cysts than untreated mlt larvae

— patent publication US20110126300A1, “High Through-Put Method of Screening Compounds for Pharmacological Activity” (priority 2005, published 2011)
